Results on seven compounds are retold here after patent publication US20050054629A1, “Compounds and methods of treating cell proliferative diseases” (priority 2002, published 2005).

Read-outs that look alike come from different tables or passages of the source. Where only a bound is given, the exact number is not on record here.

For one test, the system named is HCT116. The test can be described thus: Cell viability assay (MTT), Example 32. The conditions noted are these: Homo sapiens, HCT-116, 144 h; day 6, 10% FBS. In kind it is cell-based, human. As to the method: FIG. 7: Antiproliferative effect of compounds on HCT116 (top) and MDA-MB-231 (bottom) cell lines measured by MTT viability assay. 2.5 10^3 (HCT116) or 7.5 10^3 (MDA-MB-231) cells were seeded in 48-well plates in growth medium containing 10% FBS, with or without various concentrations of test compounds. Cell cultures were fed every 3 days with the appropriate media. Cell viability was determined on day 6. Data were analyzed and IC50s were calculated from the dose-response curves using GraphPad Prism.
In order to determine one compound effect on cell viability, microculture tetrazolium assay (MTT) was performed as described by Carmichael et al., (1996) with modifications. Four human tumoral cell lines, namely HCT116 colon adenocarcinoma, H460 lung carcinoma, MCF-7 and MDA-MB-231 breast carcinoma cell lines, and 3 immortalized but non tumorigenic cell lines, namely NIH3T3 mouse fibroblasts and human breast-derived MCF10-A and human lung-derived MRC-5 were purchased at ATCC and cultured according to their recommendations. Briefly, 2.5 10^3 to 2 10^4 cells per well were seeded in 48-well plates 24 hours before drug addition. Cells were treated with 0 to 200 μM (11 concentrations) of compound solubilized in DMSO, adjusting the final concentration of DMSO to 1% in the well. Six days after treatment, the medium was replaced by PBS containing 0.5 mg/ml MTT (Sigma) and cells were incubated for 1-3 hours at 37° C. before solubilization of formazan crystals in 100% DMSO. Absorbance was measured using a spectrophotometer at a wavelength of 550 nm. Data was analyzed using the GraphPad Prism software (GraphPad Software, Inc., San Diego, USA), and IC50 (dose leading to 50% cell death) was calculated from the dose-response curves.

The next test concerns HCT116 cells. The experiment in a line: Anchorage-independent cell growth assay in soft agar, Example 32. In kind it is cell-based, human. Particulars: 7 days. As to the method:
FIG. 8: Effect of the treatment of HCT116 cells with the compounds on the size of the clones grown in soft agar. 5 10^3 cells were seeded in 24-well plates in 0.3% agar-containing medium supplemented with the designated amount of compounds. After 7 days of incubation at 37° C., pictures were taken of each well and were analyzed using the ImageJ image analysis software. In particular, clone size and number were calculated. The data were analyzed using GraphPad Prism, and IC50 was calculated.
In order to evaluate the effect of one compound on the capacity of tumour cells to grow without anchorage, HCT116 cells were seeded in soft agar. In contrast to microplate assays which average the drug's effects over an entire cell population, clonogenic assays offer the possibility of distinguishing cytotoxic agents (i.e., decreased colony number) from cytostatic agents (i.e., decreased colony size without decreased colony number; Murphy M. J. et al., 1996).
Briefly, 5 10^3 HCT116 cells were resuspended in 300 pi of complete medium containing 0.3% soft-agar (Difco) and different concentrations of compound (8 concentrations ranging from 0 to 30 μM). Cells were then poured on a solidified layer of medium containing 0.5% of soft agar plus the compound at the same concentration as in the upper layer. Cells were incubated for 7 days' at 37° C. before pictures of each well were taken using a phase contrast microscope (Nikon) and a digital camera (Nikon Coolpix 990). Pictures were subsequently analyzed using a free image analysis software from the NIH (ImageJ) allowing to determine clones size and number.
Data was analyzed using the GraphPad Prism software, and IC50 (dose leading to a 50% decrease of clone size or number) was calculated from dose-response curves. The ratio IC50 clone size/IC50 clone number was then calculated. When this ratio is equal to 1 (IC50 size=IC50 number), the compound is referred to as “cytotoxic”. When the ratio is close to 0 (IC50 size<<IC50 number), the compound is referred to as “cytostatic” (FIG. 6).

Another test concerns NIH3T3 mouse fibroblasts. The experiment in a line: Cytotoxicity assay (MTT), 6 days. The test is classed as cell-based. Particulars: NIH3T3, 144 h, 6 days of treatment, read-out: Toxicity 6d (IC 50, μM) NIH3T3. An outline of the steps:
(§1)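 Compound was added 24 h after seeding at six concentrations from 0 to 50 μM. Six days later, viability was assessed by MTT reduction and absorbance at 550 nm, giving IC50 values from triplicate assays.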

A further test has as its system H460 lung carcinoma. The experiment in a line: Cytotoxicity assay (MTT), 6 days. The conditions noted are these: Homo sapiens, NCI-H460, 144 h, 6 days of treatment, read-out: Toxicity 6d (IC 50, μM) H460. In kind it is cell-based. In a few lines: as §1
In test [1] the test system is MDA-MB-231 breast carcinoma. The test can be described thus: Cytotoxicity assay (MTT), 6 days. The test is classed as cell-based. Particulars: Homo sapiens, MDA-MB-231, 144 h, 6 days of treatment, read-out: Toxicity 6d (IC 50, μM) MDA231. An outline of the steps:
as §1

A further test relates to MRC-5. The experiment in a line: Cytotoxicity assay (MTT), 6 days. The test is classed as cell-based. The conditions noted are these: Homo sapiens, MRC5, 144 h, 6 days of treatment, read-out: Toxicity 6d (IC 50, μM) MRC-5. In a few lines:
as §1

The test system of the next test is MCF-7 breast carcinoma. The test can be described thus: Cytotoxicity assay (MTT), 6 days. The conditions noted are these: Homo sapiens, MCF7, 144 h, 6 days of treatment, read-out: Toxicity 6d (IC 50, μM) MCF7. In kind it is cell-based. In a few lines:
as §1

A further test has as its system MCF10-A. The experiment in a line: Cytotoxicity assay (MTT), 6 days. In kind it is cell-based. The conditions noted are these: Homo sapiens, MCF-10A, 144 h, 6 days of treatment, read-out: Toxicity 6d (IC 50, μM) MCF10-A. An outline of the steps: as §1
The test system of the next test is MDA-MB-231 cells. The experiment in a line: Matrigel invasion assay (Boyden chamber). In kind it is cell-based, human. Particulars: for Invasion: MDA-MB-231, Boyden chamber, matrigel. As to the method:
Chemoinvasion assay was performed in Boyden chamber as described by Albini et al (Cancer Res, 1987) with some modifications. Polycarbonate membranes with 8 μm pores were coated with matrigel (125 μg/cm^2) at room temperature for 48 h. Two hours before experiments, the matrix was […] with serum-free medium containing 0.1% BSA.
One day after seeding, 10^6 MDA-MB-231 cells were treated overnight with different concentrations of compounds (1, 10, 17.5, 25 and 50 μM). Cells were collected with Versene (Invitrogen), counted with trypan blue exclusion, rinsed twice in serum-free medium containing 0.1% BSA and resuspended in serum-free medium containing 0.1% BSA plus the appropriate concentration of compound. 10^5 treated cells were placed in the upper chamber. Medium containing 10% of FBS plus the appropriate concentration of compound was placed in the lower chamber as a chemoattractant. The Boyden chamber was incubated 6 hours at 37° C. before the cells were fixed and stained with Diff-Quick (Dade-Berhing). Cells on the upper part of the filters were removed using a cotton swab. Cells on the underside of the filters were visualised and counted under light microscope.

Another test concerns MDA231. The experiment in a line: Cytoskeleton analysis, actin staining (FITC-phalloidin). In kind it is cell-based, human. The conditions noted are these: 24 h treatment. The procedure:
Since major rearrangements of cytoskeleton are observed in tumor cells and since the small GTPases are known to regulate these events, analysis of actin cytoskeleton was performed. Subconfluent cells seeded onto coverslips were treated with different concentration of compound (1, 10, 17.5, 25 and 50 μM) or vehicle for 24 h, before being fixed in 4% formaldehyde for 15 min., permeabilized in 0.2% Triton X100 for 5 minutes and incubated in PowerBlock (Biogenex) for 10 min. Actin filaments were stained with 0.5 μg/ml fluorescein isothiocyanate (FITC)-labelled phalloidin for 1 hour. Analysis was performed using an inverted fluorescent microscope.

Test [2] has as its system HCT116 colon adenocarcinoma. The test can be described thus: Cytotoxicity assay (MTT), 6 days. The test is classed as cell-based, human. Particulars: 6 days of treatment, read-out: Toxicity 6d (IC 50, μM) HCT116. An outline of the steps:
as §1

For another test, the system named is cell architecture. The test can be described thus: Cell architecture modification, phase contrast. Further details: key: −: no effect of the compound was observed; +: an effect of the compound was observed. In kind it is cell-based.

`Cc1cc2ccccc2n1CCCCCOc1coc(COC2CCCCO2)cc1=O` (stereo not drawn) [EHT 2427, 5-[5-(2-Methyl-indol-1-yl)-pentyloxy]-2-(tetrahydro-pyran-2-yloxymethyl)-4H-pyran-4-one] yielded an IC50 in the test with HCT116 of 1.5 to 4 µM. Moreover, in the test with HCT116 cells, the “IC50 anchorage-independent growth of HCT116 (clone size) in soft agar” value (“IC50 anchorage-independent growth” for short) is reported as “micromolar range”.

Compound `O=c1cc(COC2CCCCO2)occ1OCCCCCn1ccc2ccccc21` (stereo not drawn) [EHT 7395, 5-(5-Indol-1-yl-pentyloxy)-2-(tetrahydro-pyran-2-yloxymethyl)-4H-pyran-4-one] showed an IC50 in the test on HCT116 of 1.5 to 4 µM. In the test on HCT116 cells, the “IC50 anchorage-independent growth” value was “micromolar range”.

Consider `O=c1cc(COCc2ccccc2)occ1OCCCCCOc1ccc(Cl)c(Cl)c1` [EH7701, 2-(Benzyloxymethyl)-5-[5-(3,4-dichlorophenyloxy)pentyloxy]-4H-pyran-4-one], for which the IC50 is 40 µM with NIH3T3 mouse fibroblasts; 6 µM in the test on H460 lung carcinoma; 22.5 µM in [1]; 20 µM with MRC-5; 17.5 µM in the test with MCF-7 breast carcinoma; more than 50 µM with MCF10-A. The IC50 in [2] is 7.5 µM; in test [2] (Homo sapiens, HCT-116, 144 h) it was not above 15 µM. Besides, the Invasion entry in the test on MDA-MB-231 cells was “No effect”. The “Cell architecture modification actin staining MDA231” value in the test with MDA231 is “cell spreading”. The “Cell architecture modification phase contrast” value with cell architecture is “−”.

In the case of `CCCc1cc(Cl)c(Cl)cc1OCCCCCOc1coc(CO)cc1=O` [EH30701, 5-[5-(4,5-Dichloro-2-propylphenyloxy)pentyloxy]-2-(hydroxymethyl)-4H-pyran-4-one], the IC50 is 15 µM in the test with H460 lung carcinoma; 15 µM in test [1]; 20 µM in the test with MCF-7 breast carcinoma; 8 µM in [2]; not above 15 µM in [2] (Homo sapiens, HCT-116, 144 h). Further, the “concentration giving significant inhibition of invasive properties of MDA-MB-231 cells” value with MDA-MB-231 cells was found to be 17.5 µM. In addition, the Invasion entry with MDA-MB-231 cells is given as “Decrease”. Also, the “Cell architecture modification actin staining MDA231” value with MDA231 is reported as “cell spreading”. Further, the “Cell architecture modification phase contrast” value in the test on cell architecture was “−”.

Turning to `CCCc1c(OCCCCCCOc2coc(CO)cc2=O)ccc(Cl)c1Cl` [EH16701], the IC50 is more than 50 µM with NIH3T3 mouse fibroblasts; 7 µM with H460 lung carcinoma; 47.5 µM in test [1]; more than 50 µM in the test on MRC-5; 15 µM in the test with MCF-7 breast carcinoma; more than 50 µM in the test with MCF10-A. Moreover, the IC50 is 8.5 µM in [2] and not above 15 µM in test [2] (Homo sapiens, HCT-116, 144 h). For the same compound, in the test with MDA-MB-231 cells, the Invasion result is given as “No effect”. In addition, the “Cell architecture modification actin staining MDA231” value with MDA231 is “cell spreading”. Moreover, the “Cell architecture modification phase contrast” value in the test on cell architecture was “−”.

Regarding `CCCc1c(OCCCCCCCOc2coc(CO)cc2=O)ccc(Cl)c1Cl` [EH17701, 5-[7-(3,4-Dichloro-2-propylphenyloxy)heptyloxy]-2-(hydroxymethyl)-4H-pyran-4-one], the IC50 with H460 lung carcinoma was 5 to 10 µM; in test [1], 35 µM; in the test with MRC-5, 17.5 µM; in the test on MCF-7 breast carcinoma it was 15 µM; with MCF10-A it was more than 50 µM. For the same compound, the “concentration giving significant inhibition of invasive properties of MDA-MB-231 cells” value in the test with MDA-MB-231 cells was 17.5 µM. In addition, the “Cell architecture modification actin staining MDA231” value with MDA231 is “cell spreading”. In addition, in the test on cell architecture, the “Cell architecture modification phase contrast” value is reported as “−”.

For `O=c1cc(COC2CCCCO2)occ1OCCCCCn1ccc2cc(F)ccc21` (stereo not drawn) [EHT 0533, 5-[5-(5-Fluoro-indol-1-yl)-pentyloxy]-2-(tetrahydro-pyran-2-yloxymethyl)-4H-pyran-4-one], the IC50 in the test with HCT116 lay in the range of 1.5 to 4 µM. The “IC50 anchorage-independent growth” value in the test on HCT116 cells is reported as “micromolar range”.
